{"source": "patent US6503506B1", "about": "“Nutrient therapy for immuno-compromised patients” (Millenium Biotechnologies, Inc., priority 2001, dated 2003)", "origin": "cited, not measured here", "key": {"[1]": {"system": "mitochondrial DNA", "conditions": "patients on long-term therapy"}, "[2]": {"system": "HIV"}}, "data": [{"compound": "Cc1cn([C@H]2C[C@H](N=[N+]=[N-])[C@@H](CO)O2)c(=O)[nH]c1=O", "note": "[zidovudine (AZT), zidovudine]", "values": [{"measurement": "levels of mitochondrial DNA in muscle", "setting": "[1]", "value": "depletes levels of mitochondrial DNA in muscle"}]}, {"compound": "COC1=C(OC)C(=O)C(C/C=C(\\C)CC/C=C(\\C)CC/C=C(\\C)CC/C=C(\\C)CC/C=C(\\C)CC/C=C(\\C)CC/C=C(\\C)CC/C=C(\\C)CC/C=C(\\C)CCC=C(C)C)=C(C)C1=O", "note": "[COQ10, Coenzyme Q10]", "values": [{"measurement": "T4/T8 ratios of lymphocytes", "setting": "HIV patients, oral administration", "value": "positive increase in T4/T8 rations"}, {"measurement": "IgG and T4-lymphocytes", "setting": "human studies, administered orally", "value": "increases IgG and T4-lymphocytes"}]}, {"compound": "superoxide dismutase [SOD]", "values": [{"measurement": "levels of the virus core protein", "setting": "[2]; indicator of virus presence in the cells", "value": "reduced the levels of the virus core protein"}, {"measurement": "spread of HIV through infected cells", "setting": "[2]; infected white blood cells from patients with HIV", "value": "slowed down the spread of HIV through the infected cells"}]}]}
